Test results published in patent US12680102B2, “miRNAS for reducing ventricle enlargement” (St. Jude Children's Research Hospital, Inc., priority 2019, dated 2026).

Legend:
[1] = biological target: T1, Drd1 (Mus musculus, UniProt Q61616); test: Ex vivo ciliary beating frequency (CBF) in brain slices, Drd1 agonist/antagonist bath-applied; format: cell-based; details: SKF81297 10 μM bath-applied, slices from 4- to 5-month-old WT mice, vs vehicle (DMSO)
T1 construct: coronal brain sections (300-μm) were collected in L-15 Leibovitz media; from tissue; host or cells: acute coronal mouse brain slices (300 µm); ciliated ependymal cells of the lateral ventricle wall; WT and Dgcr8+/- mice
Procedure: Ex Vivo Ciliary Beating Frequency Measurements. For ex vivo measurement of CBF, coronal brain sections (300-μm) were collected in L-15 Leibovitz media (Thermo Fisher Scientific) and placed in 37° C., 95%/5% O2/CO2 chamber. Image sequences of CBF were acquired by linescan analysis using an LD C-Apochromat 40× objective water-immersion lens (1.1 NA) in LSM780 confocal microscope (Zeiss AxioObserver). Slices were scanned through a line perpendicular to the axis of the cilia in the Xt mode along this line with an acquisition rate of 529 frames/second (512×1 frame size, 1.89-ms scan time, 5,000 cycles). Transmitted DIC and fluorescence emitted by GFP or Alexa Fluor 488 were collected with a 488- to 568-nm bandpass filter. Fluorescence excitation and transmitted illumination were provided by a 488-nm argon gas laser. The Drd1 agonist (SKF81297, 10 μM; Tocris, Minneapolis, MN) and antagonist (SCH23390, 10 μM; Tocris) were bath-applied once per slice. Five minutes after the agonist or antagonist was applied, the CBF was measured.

[2] = system: luciferase reporter encoding miRNA sponge; test: Luciferase assay validating miRNA sponges in Neuro 2a cells; format: cell-based, mouse; details: pGIPZ vector encoding the miRNA vs control pGIPZ
From the text: FIGS. 13A-13B. Validation of the miRNA Sponges, Related to FIGS. 6A-6H. (FIG. 13A) Luciferase activity measured in Neuro 2a cells transfected with luciferase reporter vector alone, luciferase reporter vector encoding miR-382-3p sponges (two-tailed Student's t-test; t4=1.62, p=0.18) containing two (t4=23.00, *p<0.001), four (t4=24.35, *p<0.001), or six (t4=9.17, *p<0.001) miRNA-binding sites or scrambled sites (t4=2.36, p=0.08) in the presence of control pGIPZ vector or pGIPZ vector encoding miR-382-3p. Based on these experiments, the miR-382-3p sponge with six seed sites was chosen for in vivo experiments. (FIG. 13B) Luciferase activity in Neuro2a cells transfected with luciferase reporter vector alone, luciferase reporter vector encoding miR-674-3p sponges (t4=14.13, *p<0.001) containing two (t4=14.25, *p<0.001), four (t4=80.70, *p<0.001), or six miRNA-binding sites (t4=26.67, *p<0.001), or scrambled (t4=1.11, p=0.33) sites in the presence of control pGIPZ vector or pGIPZ vector encoding miR-674-3p. Data are shown as the mean±S.E.M.
Generation of miRNA Sponge Constructs. The miR-382-3p and miR-674-3p sponges were generated as described previously (Chun et al., 2017). […]

T1 sequence (Q61616 whole entry): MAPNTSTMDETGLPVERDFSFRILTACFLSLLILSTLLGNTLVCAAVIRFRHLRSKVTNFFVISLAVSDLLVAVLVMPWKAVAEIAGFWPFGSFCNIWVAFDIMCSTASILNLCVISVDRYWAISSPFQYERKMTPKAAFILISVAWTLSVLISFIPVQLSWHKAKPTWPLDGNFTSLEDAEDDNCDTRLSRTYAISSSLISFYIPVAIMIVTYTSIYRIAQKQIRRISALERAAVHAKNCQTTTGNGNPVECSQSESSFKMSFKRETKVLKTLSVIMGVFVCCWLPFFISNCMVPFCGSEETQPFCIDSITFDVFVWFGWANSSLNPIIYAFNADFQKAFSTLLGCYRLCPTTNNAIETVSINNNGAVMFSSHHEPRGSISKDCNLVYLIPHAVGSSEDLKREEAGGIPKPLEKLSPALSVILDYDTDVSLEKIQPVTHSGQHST

Row | Molecule | ependymal CBF [1] | inhibition of reporters containing the sponge sequence (luciferase activity) [2]
1 | Oc1cc2c(c(Cl)c1O)CCNCC2c1ccccc1 (centres unmarked) [SKF81297] | slowed ependymal CBF compared to vehicle treatment | 
2 | miR-674-3p: mature mouse miRNA CACAGCUCCCAUCUCAGAACAA (SEQ ID NO: 3); in FIG. 13 expressed from pGIPZ vector (listed as Mus musculus) |  | effectively inhibited reporters containing the sponge sequence in vitro
